Test results: patent publication US20250145606A1 (Arcus Biosciences, Inc., priority 2023, published 2025)
Where two headings read alike, the source gives them in different places.

What was measured:
[1] = molecular target: c-Kit (Homo sapiens (Human), UniProt P10721); experiment: Inhibition of c-Kit kinase activity (HTRF KinEASE-TK); assay type: biochemical; settings: biochemical, HTRF KinEASE-TK
In short: (§1)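 Phosphorylation of biotinylated TK peptide read by HTRF (665/620 nm ratio) after 120 min at rt, following 1 h enzyme–compound preincubation. ATP (2× mix): 20 μM CSF1R, 16 μM c-Kit, 40 μM PDGFRβ, 1 μM PDGFRα; MgCl2 10 mM except c-Kit 5 mM. 22-point 1:2 titration; four-parameter IC50.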

[2] = molecular target: PDGFRα (Homo sapiens (Human), UniProt P16234); experiment: Inhibition of PDGFRα kinase activity (HTRF KinEASE-TK); settings: biochemical, HTRF KinEASE-TK
PDGFRα, sequence (P16234 24-1089): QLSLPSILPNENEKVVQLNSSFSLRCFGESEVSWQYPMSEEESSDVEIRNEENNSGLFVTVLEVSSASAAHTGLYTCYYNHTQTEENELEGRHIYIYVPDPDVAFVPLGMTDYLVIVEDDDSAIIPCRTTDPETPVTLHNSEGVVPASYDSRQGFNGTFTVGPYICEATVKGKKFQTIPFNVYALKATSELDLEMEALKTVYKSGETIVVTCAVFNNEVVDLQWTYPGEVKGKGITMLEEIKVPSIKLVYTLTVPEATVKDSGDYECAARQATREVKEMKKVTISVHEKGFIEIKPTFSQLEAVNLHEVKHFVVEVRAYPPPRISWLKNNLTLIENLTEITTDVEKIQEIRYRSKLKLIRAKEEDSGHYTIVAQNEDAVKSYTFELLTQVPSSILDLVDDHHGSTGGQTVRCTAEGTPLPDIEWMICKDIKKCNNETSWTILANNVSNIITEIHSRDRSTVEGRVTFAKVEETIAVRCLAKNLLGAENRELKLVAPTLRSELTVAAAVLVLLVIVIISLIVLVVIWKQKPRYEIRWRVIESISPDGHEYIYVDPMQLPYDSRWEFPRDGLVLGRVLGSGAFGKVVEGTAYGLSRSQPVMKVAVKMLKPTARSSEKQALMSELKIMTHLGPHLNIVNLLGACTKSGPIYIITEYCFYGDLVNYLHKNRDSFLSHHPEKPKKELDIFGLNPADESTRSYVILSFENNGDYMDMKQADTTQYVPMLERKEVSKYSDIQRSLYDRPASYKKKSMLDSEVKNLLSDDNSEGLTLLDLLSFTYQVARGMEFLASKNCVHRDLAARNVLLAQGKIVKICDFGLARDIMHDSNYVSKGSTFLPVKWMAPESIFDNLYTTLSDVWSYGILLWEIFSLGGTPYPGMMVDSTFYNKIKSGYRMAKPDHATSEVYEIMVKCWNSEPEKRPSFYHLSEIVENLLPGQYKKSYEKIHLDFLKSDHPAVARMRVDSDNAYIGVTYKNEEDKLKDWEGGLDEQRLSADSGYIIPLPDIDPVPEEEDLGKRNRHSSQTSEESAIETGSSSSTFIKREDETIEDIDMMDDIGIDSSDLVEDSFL
In short: as §1

[3] = molecular target: PDGFRβ (Homo sapiens (Human), UniProt P09619); experiment: Inhibition of PDGFRβ kinase activity (HTRF KinEASE-TK); settings: biochemical, HTRF KinEASE-TK
PDGFRβ, sequence (P09619 33-1106): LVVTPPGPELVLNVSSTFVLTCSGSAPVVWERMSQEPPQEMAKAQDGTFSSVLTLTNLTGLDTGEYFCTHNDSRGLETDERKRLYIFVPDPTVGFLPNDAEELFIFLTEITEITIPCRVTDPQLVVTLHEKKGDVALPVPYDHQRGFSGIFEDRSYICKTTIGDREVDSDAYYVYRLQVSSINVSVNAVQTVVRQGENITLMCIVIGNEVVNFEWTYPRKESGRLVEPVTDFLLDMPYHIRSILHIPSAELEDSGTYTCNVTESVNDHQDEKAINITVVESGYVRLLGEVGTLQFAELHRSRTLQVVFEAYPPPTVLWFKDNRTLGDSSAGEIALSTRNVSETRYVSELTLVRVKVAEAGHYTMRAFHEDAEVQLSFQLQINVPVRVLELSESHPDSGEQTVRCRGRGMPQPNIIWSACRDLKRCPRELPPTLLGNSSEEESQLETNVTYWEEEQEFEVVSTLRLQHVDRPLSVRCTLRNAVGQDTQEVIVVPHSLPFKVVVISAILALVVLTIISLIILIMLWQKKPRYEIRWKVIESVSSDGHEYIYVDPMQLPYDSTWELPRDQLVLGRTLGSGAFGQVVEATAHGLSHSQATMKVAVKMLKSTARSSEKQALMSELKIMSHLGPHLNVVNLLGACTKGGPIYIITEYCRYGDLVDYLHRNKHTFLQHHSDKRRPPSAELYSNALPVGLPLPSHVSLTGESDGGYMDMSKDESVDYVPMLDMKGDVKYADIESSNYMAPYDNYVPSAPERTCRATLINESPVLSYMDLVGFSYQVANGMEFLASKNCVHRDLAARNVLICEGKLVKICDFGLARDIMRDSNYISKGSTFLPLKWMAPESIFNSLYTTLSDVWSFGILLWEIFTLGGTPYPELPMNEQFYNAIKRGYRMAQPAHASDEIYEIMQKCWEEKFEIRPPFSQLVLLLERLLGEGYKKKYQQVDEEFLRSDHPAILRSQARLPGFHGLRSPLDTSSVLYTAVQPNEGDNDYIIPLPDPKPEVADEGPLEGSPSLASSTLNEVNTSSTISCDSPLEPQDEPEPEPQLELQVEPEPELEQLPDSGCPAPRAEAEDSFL
In short: as §1

[4] = molecular target: CSF1R (Homo sapiens (Human), UniProt P07333); experiment: Inhibition of CSF1R kinase activity (HTRF KinEASE-TK); settings: biochemical, HTRF KinEASE-TK
CSF1R, sequence (P07333 20-972): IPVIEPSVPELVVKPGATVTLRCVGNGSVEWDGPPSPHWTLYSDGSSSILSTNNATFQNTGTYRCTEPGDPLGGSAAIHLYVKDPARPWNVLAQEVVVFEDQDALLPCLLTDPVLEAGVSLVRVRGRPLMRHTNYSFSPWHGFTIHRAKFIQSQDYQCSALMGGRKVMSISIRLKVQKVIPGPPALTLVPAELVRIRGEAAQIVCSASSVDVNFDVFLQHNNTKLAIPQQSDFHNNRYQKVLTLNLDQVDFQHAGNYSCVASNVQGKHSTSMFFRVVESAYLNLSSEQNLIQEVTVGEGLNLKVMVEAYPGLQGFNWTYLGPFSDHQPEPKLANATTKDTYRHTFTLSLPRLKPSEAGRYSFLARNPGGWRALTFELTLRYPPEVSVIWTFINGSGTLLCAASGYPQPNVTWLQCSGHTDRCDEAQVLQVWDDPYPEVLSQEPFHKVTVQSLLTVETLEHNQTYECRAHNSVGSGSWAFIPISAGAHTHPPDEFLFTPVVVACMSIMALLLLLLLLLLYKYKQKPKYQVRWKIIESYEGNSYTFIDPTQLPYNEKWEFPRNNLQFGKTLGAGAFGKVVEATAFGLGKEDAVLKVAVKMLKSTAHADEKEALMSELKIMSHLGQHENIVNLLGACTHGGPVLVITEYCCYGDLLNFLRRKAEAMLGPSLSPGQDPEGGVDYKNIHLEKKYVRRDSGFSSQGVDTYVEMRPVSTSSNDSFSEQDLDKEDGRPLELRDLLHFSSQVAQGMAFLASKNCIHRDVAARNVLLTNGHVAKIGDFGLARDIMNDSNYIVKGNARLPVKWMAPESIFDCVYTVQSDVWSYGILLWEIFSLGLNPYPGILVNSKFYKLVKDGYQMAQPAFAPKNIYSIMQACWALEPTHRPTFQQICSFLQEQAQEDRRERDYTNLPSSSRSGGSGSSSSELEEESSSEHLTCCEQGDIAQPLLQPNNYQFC
In short: as §1

[5] = molecular target: FLT3 (Homo sapiens (Human), UniProt P36888); experiment: Inhibition of FLT3 kinase activity (HTRF KinEASE-TK); assay type: biochemical; settings: biochemical, HTRF KinEASE-TK
FLT3, sequence (P36888 27-993): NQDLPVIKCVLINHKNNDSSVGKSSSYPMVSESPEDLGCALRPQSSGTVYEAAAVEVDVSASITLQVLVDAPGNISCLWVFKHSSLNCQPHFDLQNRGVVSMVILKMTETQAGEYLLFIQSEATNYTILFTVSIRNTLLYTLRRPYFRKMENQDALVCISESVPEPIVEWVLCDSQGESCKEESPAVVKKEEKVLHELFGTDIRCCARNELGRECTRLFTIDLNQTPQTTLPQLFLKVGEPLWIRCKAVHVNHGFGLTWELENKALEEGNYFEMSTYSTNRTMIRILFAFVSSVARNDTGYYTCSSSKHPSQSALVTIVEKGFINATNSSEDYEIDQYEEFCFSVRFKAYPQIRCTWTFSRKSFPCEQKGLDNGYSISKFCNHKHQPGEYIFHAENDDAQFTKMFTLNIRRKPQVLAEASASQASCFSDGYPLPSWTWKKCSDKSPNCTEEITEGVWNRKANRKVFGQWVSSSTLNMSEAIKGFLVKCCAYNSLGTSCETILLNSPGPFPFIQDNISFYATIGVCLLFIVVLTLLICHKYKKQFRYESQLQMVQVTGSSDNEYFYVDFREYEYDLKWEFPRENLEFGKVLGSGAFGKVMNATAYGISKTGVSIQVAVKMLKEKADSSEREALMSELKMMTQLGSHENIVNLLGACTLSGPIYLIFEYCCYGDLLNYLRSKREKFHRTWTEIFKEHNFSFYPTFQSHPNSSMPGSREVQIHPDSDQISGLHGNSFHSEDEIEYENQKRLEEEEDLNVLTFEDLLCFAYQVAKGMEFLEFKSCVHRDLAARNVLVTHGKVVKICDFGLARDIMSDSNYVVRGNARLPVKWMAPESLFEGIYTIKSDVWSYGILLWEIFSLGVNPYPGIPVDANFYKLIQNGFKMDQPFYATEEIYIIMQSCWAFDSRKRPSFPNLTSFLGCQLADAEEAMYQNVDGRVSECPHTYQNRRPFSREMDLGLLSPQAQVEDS
In short: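 FLT3 tyrosine kinase activity was measured with the HTRF KinEASE-TK kit by following phosphorylation of a biotinylated TK peptide. After the 45 min reaction, 10 μL of detection mix was added: 0.2 μM (2×) Streptavidin-XL665 and 2 μM (2×) TK-Antibody-Cryptate in detection buffer. After 60 min, TR-FRET was read on an Envision as the 665 nm/620 nm emission ratio with 320 nm excitation.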

[6] = tested on: Phospho-KIT (Y703) in M07e cells; experiment: Phospho-KIT (Y703) cellular assay in M07e cells; assay type: cell-based; settings: M-07e, read-out: M07e Cell IC50
In short: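 Serum-starved M07e cells preincubated 50 min at 37° C with 11-point half-log compound titration, then stimulated 10 min with SCF at 90.9 ng/mL final. Fixed, permeabilized cells stained for phospho-KIT Y703 and read by flow cytometry (live-gated geometric mean); IC50 by 4-parameter fit normalized to DMSO and positive control.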

c-Kit, sequence (P10721 26-976): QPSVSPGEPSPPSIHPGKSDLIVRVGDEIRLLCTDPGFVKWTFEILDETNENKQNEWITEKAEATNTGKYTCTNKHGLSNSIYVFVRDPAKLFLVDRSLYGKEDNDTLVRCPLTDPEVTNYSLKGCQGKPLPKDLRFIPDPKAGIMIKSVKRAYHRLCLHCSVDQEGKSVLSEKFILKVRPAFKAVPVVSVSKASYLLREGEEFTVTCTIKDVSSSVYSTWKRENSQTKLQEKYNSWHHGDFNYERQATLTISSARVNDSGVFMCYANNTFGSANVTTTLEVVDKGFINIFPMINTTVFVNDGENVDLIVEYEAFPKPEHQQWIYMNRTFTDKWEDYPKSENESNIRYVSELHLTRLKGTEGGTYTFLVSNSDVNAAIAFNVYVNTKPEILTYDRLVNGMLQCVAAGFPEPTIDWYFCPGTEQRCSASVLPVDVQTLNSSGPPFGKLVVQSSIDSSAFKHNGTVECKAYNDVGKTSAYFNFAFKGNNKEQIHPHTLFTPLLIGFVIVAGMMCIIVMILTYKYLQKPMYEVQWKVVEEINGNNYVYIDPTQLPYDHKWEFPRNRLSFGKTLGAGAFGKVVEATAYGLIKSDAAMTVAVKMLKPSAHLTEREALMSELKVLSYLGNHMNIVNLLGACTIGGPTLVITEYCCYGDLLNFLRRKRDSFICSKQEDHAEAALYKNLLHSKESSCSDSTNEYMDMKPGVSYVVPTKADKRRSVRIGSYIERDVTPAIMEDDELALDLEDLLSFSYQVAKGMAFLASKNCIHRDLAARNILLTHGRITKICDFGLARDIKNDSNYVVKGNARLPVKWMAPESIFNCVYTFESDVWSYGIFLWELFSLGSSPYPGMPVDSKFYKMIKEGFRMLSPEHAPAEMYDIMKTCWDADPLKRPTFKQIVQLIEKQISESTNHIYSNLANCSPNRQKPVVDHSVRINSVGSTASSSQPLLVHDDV

Cc1ncc(C(=O)Nc2cc(C(=O)Nc3ccc(CC(F)(F)F)cn3)c(C)cc2C)s1 [Example 75, N-(2,4-dimethyl-5-((5-(2,2,2-trifluoroethyl)pyridin-2-yl)carbamoyl)phenyl)-2-methylthiazole-5-carboxamide]
IC50 [1]: 100 to 1000 nM
IC50 [2]: > 1000 nM
IC50 [3]: > 1000 nM
IC50 [4]: > 1000 nM
IC50 [5]: > 1000 nM
IC50 [6]: 100 to 1000 nM

Cc1cc(F)c(C(=O)Nc2ccc(COCC3CC3)cn2)cc1NC(=O)c1cnc(N)s1 [Example 251, 2-Amino-N-[5-[[5-(cyclopropylmethoxymethyl)pyridin-2-yl]carbamoyl]-4-fluoro-2-methylphenyl]-1,3-thiazole-5-carboxamide]
IC50 [1]: < 100 nM
IC50 [2]: > 1000 nM
IC50 [3]: > 1000 nM
IC50 [4]: > 1000 nM
IC50 [5]: > 1000 nM
IC50 ([6]; Phospho-KIT (Y703), M07e cells): < 100 nM

CCOCc1ccc(NC(=O)c2cc(NC(=O)c3cnc(N)s3)c(C)cc2F)nc1 [Example 196, 2-Amino-N-[5-[[5-(ethoxymethyl)pyridin-2-yl]carbamoyl]-4-fluoro-2-methylphenyl]-1,3-thiazole-5-carboxamide]
IC50 [1]: < 100 nM
IC50 [2]: > 1000 nM
IC50 [3]: > 1000 nM
IC50 [4]: > 1000 nM
IC50 [5]: > 1000 nM
IC50 ([6]; Phospho-KIT (Y703), M07e cells): < 100 nM

Nc1ncc(C(=O)Nc2cc(C(=O)Nc3ccc(OC(F)(F)F)cn3)c(F)cc2F)s1 [Example 210, 2-Amino-N-[2,4-difluoro-5-[[5-(trifluoromethoxy)pyridin-2-yl]carbamoyl]phenyl]-1,3-thiazole-5-carboxamide]
IC50 [1]: < 100 nM
IC50 [2]: > 1000 nM
IC50 [3]: 100 to 1000 nM
IC50 [4]: 100 to 1000 nM
IC50 [5]: > 1000 nM
IC50 ([6]; Phospho-KIT (Y703), M07e cells): < 100 nM

Cc1ncc(C(=O)Nc2cc(C(=O)Nc3ccc(CC(F)F)cn3)c(F)cc2C)s1 [Example 45, N-[5-[[5-(2,2-difluoroethyl)pyridin-2-yl]carbamoyl]-4-fluoro-2-methylphenyl]-2-methyl-1,3-thiazole-5-carboxamide]
IC50 [1]: < 100 nM
IC50 [2]: > 1000 nM
IC50 [3]: > 1000 nM
IC50 [4]: > 1000 nM
IC50 [5]: > 1000 nM
IC50 [6]: < 100 nM

CO[C@@H](C)c1ccc(NC(=O)c2cc(NC(=O)c3cnc(N)s3)c(C)cc2F)nc1 [Example 257, 2-Amino-N-[4-fluoro-5-[[5-[(1S)-1-methoxyethyl]pyridin-2-yl]carbamoyl]-2-methylphenyl]-1,3-thiazole-5-carboxamide]
IC50 [1]: < 100 nM
IC50 [2]: > 1000 nM
IC50 [3]: 100 to 1000 nM
IC50 [4]: > 1000 nM
IC50 [5]: > 1000 nM
IC50 ([6]; Phospho-KIT (Y703), M07e cells): < 100 nM

COCCc1ccc(NC(=O)c2cc(NC(=O)c3cnc(N)s3)c(C)cc2F)nc1 [Example 245, 2-Amino-N-[4-fluoro-5-[[5-(2-methoxyethyl)pyridin-2-yl]carbamoyl]-2-methylphenyl]-1,3-thiazole-5-carboxamide]
IC50 [1]: < 100 nM
IC50 [2]: > 1000 nM
IC50 [3]: > 1000 nM
IC50 [4]: > 1000 nM
IC50 [5]: > 1000 nM
IC50 ([6]; Phospho-KIT (Y703), M07e cells): < 100 nM

Nc1ncc(C(=O)Nc2cc(C(=O)Nc3ccc(C(F)F)cn3)c(F)cc2F)s1 [Example 217, 2-Amino-N-[5-[[5-(difluoromethyl)pyridin-2-yl]carbamoyl]-2,4-difluorophenyl]-1,3-thiazole-5-carboxamide]
IC50 [1]: < 100 nM
IC50 [2]: > 1000 nM
IC50 [3]: > 1000 nM
IC50 [4]: > 1000 nM
IC50 [5]: > 1000 nM
IC50 ([6]; Phospho-KIT (Y703), M07e cells): < 100 nM

Cc1cc(F)c(C(=O)Nc2ccc(C3CC3)nn2)cc1NC(=O)c1cnc(N)s1 [Example 135, 2-Amino-N-[5-[(6-cyclopropylpyridazin-3-yl)carbamoyl]-4-fluoro-2-methylphenyl]-1,3-thiazole-5-carboxamide]
IC50 [1]: < 100 nM
IC50 [2]: 100 to 1000 nM
IC50 [3]: < 100 nM
IC50 [4]: 100 to 1000 nM
IC50 [5]: > 1000 nM
IC50 ([6]; Phospho-KIT (Y703), M07e cells): < 100 nM

Cc1cc(F)c(C(=O)Nc2ccn(C3CCC3)n2)cc1NC(=O)c1cnc(N)s1 [Example 155, 2-Amino-N-[5-[(1-cyclobutylpyrazol-3-yl)carbamoyl]-4-fluoro-2-methylphenyl]-1,3-thiazole-5-carboxamide]
IC50 [1]: < 100 nM
IC50 [2]: 100 to 1000 nM
IC50 [3]: 100 to 1000 nM
IC50 [4]: > 1000 nM
IC50 [5]: > 1000 nM
IC50 ([6]; Phospho-KIT (Y703), M07e cells): < 100 nM
